PubChem BioAssay (NCI)
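Results reflect a 48-hour exposure of cells in 96-well plates to compound at five concentrations. TGI denotes the concentration required for complete inhibition of growth.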

Legend:
Assay in all cases: NCI anticancer screen, dose series, 48 h
786-0 renal = tested on: 786-0 renal
A498 renal = tested on: A498 renal
A549 NSCLC = tested on: A549 NSCLC
ACHN renal = tested on: ACHN renal
BT-549 breast = tested on: BT-549 breast
CAKI-1 renal = tested on: CAKI-1 renal
CCRF-CEM leukemia = tested on: CCRF-CEM leukemia
COLO 205 colon = tested on: COLO 205 colon
DU-145 prostate = tested on: DU-145 prostate
EKVX NSCLC = tested on: EKVX NSCLC
HCC-2998 colon = tested on: HCC-2998 colon
HCT-116 colon = tested on: HCT-116 colon
HL-60(TB) leukemia = tested on: HL-60(TB) leukemia
HOP-62 NSCLC = tested on: HOP-62 NSCLC
HOP-92 NSCLC = tested on: HOP-92 NSCLC
HS 578T breast = tested on: HS 578T breast
HT29 colon = tested on: HT29 colon
IGROV1 ovarian = tested on: IGROV1 ovarian
K-562 leukemia = tested on: K-562 leukemia
KM12 colon = tested on: KM12 colon
LOX IMVI melanoma = tested on: LOX IMVI melanoma
M14 melanoma = tested on: M14 melanoma
MALME-3M melanoma = tested on: MALME-3M melanoma
MCF7 breast = tested on: MCF7 breast
MDA-MB-231 breast = tested on: MDA-MB-231 breast
MDA-MB-435 = tested on: MDA-MB-435
MDA-N = tested on: MDA-N
MOLT-4 leukemia = tested on: MOLT-4 leukemia
NCI-H226 lung = tested on: NCI-H226 lung
NCI-H23 lung = tested on: NCI-H23 lung
NCI-H460 lung = tested on: NCI-H460 lung
NCI-H522 lung = tested on: NCI-H522 lung
NCI/ADR-RES ovarian = tested on: NCI/ADR-RES ovarian
OVCAR-3 ovarian = tested on: OVCAR-3 ovarian
OVCAR-4 ovarian = tested on: OVCAR-4 ovarian
OVCAR-5 ovarian = tested on: OVCAR-5 ovarian
PC-3 prostate = tested on: PC-3 prostate
RPMI-8226 leukemia = tested on: RPMI-8226 leukemia
RXF 393 renal = tested on: RXF 393 renal
SF-268 CNS = tested on: SF-268 CNS
SF-295 CNS = tested on: SF-295 CNS
SF-539 CNS = tested on: SF-539 CNS
SK-MEL-2 melanoma = tested on: SK-MEL-2 melanoma
SK-MEL-28 melanoma = tested on: SK-MEL-28 melanoma
SK-MEL-5 melanoma = tested on: SK-MEL-5 melanoma
SK-OV-3 ovarian = tested on: SK-OV-3 ovarian
SN12C renal = tested on: SN12C renal
SNB-19 CNS = tested on: SNB-19 CNS
SNB-75 CNS = tested on: SNB-75 CNS
SR leukemia = tested on: SR leukemia
SW-620 colon = tested on: SW-620 colon
TK-10 renal = tested on: TK-10 renal
U251 CNS = tested on: U251 CNS
UACC-257 melanoma = tested on: UACC-257 melanoma
UO-31 renal = tested on: UO-31 renal

C=CC(Br)(CBr)CCC1OC1(C)C (stereo not given)
TGI (786-0 renal): 29.6 µM | TGI (A498 renal): 40.2 µM | TGI (A549 NSCLC): 64.3 µM | TGI (ACHN renal): 34.1 µM | TGI (BT-549 breast): 30.2 µM | TGI (CAKI-1 renal): 36.4 µM | TGI (CCRF-CEM leukemia): > 100 µM | TGI (COLO 205 colon): 36.2 µM | TGI (DU-145 prostate): 59.8 µM | TGI (EKVX NSCLC): 38.5 µM | TGI (HCC-2998 colon): 33.1 µM | TGI (HCT-116 colon): 30.7 µM | TGI (HL-60(TB) leukemia): > 100 µM | TGI (HOP-62 NSCLC): 33.2 µM | TGI (HOP-92 NSCLC): 28.2 µM | TGI (HS 578T breast): 37.6 µM | TGI (HT29 colon): 32.8 µM | TGI (IGROV1 ovarian): 26.7 µM | TGI (K-562 leukemia): > 100 µM | TGI (KM12 colon): 30.9 µM | TGI (LOX IMVI melanoma): 17.8 µM | TGI (M14 melanoma): 29 µM | TGI (MALME-3M melanoma): 38.2 µM | TGI (MCF7 breast): 29.9 µM | TGI (MDA-MB-231 breast): 24.6 µM | TGI (MDA-MB-435): 31.3 µM | TGI (MDA-N): 24.5 µM | TGI (MOLT-4 leukemia): 47.8 µM | TGI (NCI-H226 lung): 42.6 µM | TGI (NCI-H23 lung): 30.3 µM | TGI (NCI-H460 lung): 28.3 µM | TGI (NCI-H522 lung): 34.1 µM | TGI (NCI/ADR-RES ovarian): 58.7 µM | TGI (OVCAR-3 ovarian): 36.8 µM | TGI (OVCAR-4 ovarian): 30.5 µM | TGI (OVCAR-5 ovarian): 33.3 µM | TGI (PC-3 prostate): 30.9 µM | TGI (RPMI-8226 leukemia): 82 µM | TGI (RXF 393 renal): 21.4 µM | TGI (SF-268 CNS): 31.2 µM | TGI (SF-295 CNS): 32 µM | TGI (SF-539 CNS): 33.9 µM | TGI (SK-MEL-2 melanoma): 30.6 µM | TGI (SK-MEL-28 melanoma): 30.5 µM | TGI (SK-MEL-5 melanoma): 27.3 µM | TGI (SK-OV-3 ovarian): 51.7 µM | TGI (SN12C renal): 30.5 µM | TGI (SNB-19 CNS): 32.7 µM | TGI (SNB-75 CNS): 32.3 µM | TGI (SR leukemia): 86.8 µM | TGI (SW-620 colon): 26.8 µM | TGI (TK-10 renal): 36.2 µM | TGI (U251 CNS): 30.7 µM | TGI (UACC-257 melanoma): 27.7 µM | TGI (UO-31 renal): 32.8 µM
